Patent publication US20230212225A1, “PEPTIDE COMPOSTIONS AND METHODS FOR TREATING TAUOPATHIES” (AXOLTIS PHARMA, priority 2019, published 2023)
Where a SMILES comes first, the peptide text is derived from it.

Columns and labels:
[1] = system: Aβ25-35-induced short-term memory deficits; assay: Spontaneous alternation performance (Y-maze), treatment started 1 hour after Aβ25-35 injection, tested D08; assay type: in vivo, mice; conditions: for Y-maze % (Sc.Aβ / Vhc = 100) / Y-maze Mean, percentage of alternation: D08
[2] = system: Aβ25-35-induced long-term memory deficits; assay: Step-through passive avoidance test (STPA), D09-D10; assay type: in vivo, mice
[3] = system: Aβ1-42 (amyloid-beta 1-42); assay: Brain biomarker assessment, hippocampus ELISA, D11; assay type: in vivo, mice
Protocol: (§1) In order to evaluate potential biological effects of NX210 or NX218 treatments on pathological biomarkers, mice from the Sc.Aβ / Vhc (n=6), Aβ25-35 / Vhc (n=6), Aβ25-35 / NX210 IP 2 mg/kg (n=5) and Aβ25-35 / NX218 IP 2 mg/kg (n=5) groups were sacrificed under anesthesia ten days after ICV injection of Aβ25-35 peptide (D11) and daily compound administrations (once a day).
(§2) For each mouse, the brain was quickly removed and dissected out on an ice-cold metal plate into 2 hemi-hippocampi, 2 hemi-frontal cortices and the rest of brain. Straight after each collection, brain samples were frozen on dry ice and stored at -80° C. After thawing, brain structures were dissociated in 50 mM Tris-150 mM NaCl buffer, pH 7.5, and sonicated for 20 sec. After centrifugation, supernatants containing proteins were used for ELISA assays according to the manufacturer’s instructions (see below). • For Aβ1-42 (amyloid-beta 1-42), use of the left hippocampus, ELISA kit from Cloud-Clone Corp., ref: CEA946Mu; batch: L190107385 • For pTau (phosphorylated Tau protein), use of the left hippocampus, ELISA kit from Fisher Scientific, ref: 10591255; batch: 187860001
(§3) For all assays, the absorbance was read at 450 nm and each sample concentration was calculated by using a specific standard curve. All samples were run in duplicate and the average of these duplicates was used for calculations.

[4] = system: pTau (phosphorylated Tau protein); assay: Brain biomarker assessment, hippocampus ELISA, D11; assay type: in vivo, mice
Protocol: as §1, §2, §3

[5] = system: hippocampal CA1 pyramidal neurons; assay: Histological study, cresyl violet CA1 pyramidal neuron counting, D15; assay type: in vivo, mice
Description: In order to measure neuronal loss in this model (as described by Maurice et al., 2013), a well-known pathological event occurring in patients with AD/Tauopathies, hippocampal neurons were counted in the brain of Sham, Aβ25-35 / vehicle and Aβ25-35 / NX210-treated mice.
To do so, fourteen days after ICV injection of Aβ25-35 or Scrambled peptide (D15) and daily compound administrations of NX210 (IP) or vehicle (IP), mice were anaesthetized by ketamine/xylazine and then transcardially perfused with phosphate buffer solution (PBS, 15 ml at 5 ml/min, pH 7.4) until fluid running clear, followed by a solution of 4% paraformaldehyde (PFA, 25 ml at 5 ml/min) until the fixation tremors disappeared. Brains were removed carefully and kept in 4% PFA at 4° C. for 24-48 h. Brains were then dehydrated through a series of graded ethanol baths to displace the water, and then infiltrated with wax. Finally, the infiltrated brains were embedded into wax blocks and sectioned at […]. Cresyl violet (CV) staining was performed on 9 brain sections per animal, each coronal section separated by 100 µm for CA1 pyramidal neuron counting.

[6] = Preliminary in vitro conversion of NX210 in rat plasma; assay type: in vitro ADME
[7] = Pharmacokinetics in human healthy subjects; assay type: in vivo; conditions: single IV 10 mg/kg
Protocol: As in animals; PK study of NX210 in Human Healthy subjects was conducted following the measurement of its cyclic form NX218.

[8] = IP 2 mg/kg every other day (1/2d)
[9] = IP 3.75 mg/kg every other day (1/2d)
[10] = once a day, NX210 0.1 mg/kg, NX218 0.1 mg/kg, DPZ 0.25 mg/kg
[11] = 2 mg/kg once a day for ten days
[12] = IP 2 mg/kg once a day, left hippocampus, D11
[13] = measured as NX218, maximum, N=3
[14] = measured as NX218, minimum, N=3

N=C(N)NCCC[C@H](NC(=O)[C@H](CO)NC(=O)[C@H](CS)NC(=O)[C@H](CO)NC(=O)[C@H](CO)NC(=O)[C@H](Cc1c[nH]c2ccccc12)NC(=O)CNC(=O)[C@H](CO)NC(=O)[C@@H](N)Cc1c[nH]c2ccccc12)C(=O)N[C@@H](CO)C(=O)N[C@@H](CS)C(=O)NCC(=O)O [NX210, W-S-G-W-S-S-C-S-R-S-C-G] (H-WSGWSSCSRSCG-OH; N-terminus and C-terminus assumed)
effect on spatial short-term working memory deficits (Y-maze), in words ([1]; 1, 2 and 3.75 mg/kg IP, once a day or every other day): significantly rescued
Y-maze % (Sc.Aβ / Vhc = 100) ([1]; IP 0.1 mg/kg once a day): 60%
Y-maze Mean, percentage of alternation ([1]; IP 0.1 mg/kg once a day): 44.52%
Y-maze % (Sc.Aβ / Vhc = 100) ([1]; IP 1 mg/kg once a day): 79%
Y-maze Mean, percentage of alternation ([1]; IP 1 mg/kg once a day): 58.16%
Y-maze % (Sc.Aβ / Vhc = 100) [1, 8]: 100%
Y-maze Mean, percentage of alternation [1, 8]: 74.35%
Y-maze % (Sc.Aβ / Vhc = 100) ([1]; IP 2 mg/kg once a day): 98%
Y-maze Mean, percentage of alternation ([1]; IP 2 mg/kg once a day): 72.67%
Y-maze % (Sc.Aβ / Vhc = 100) [1, 9]: 98%
Y-maze Mean, percentage of alternation [1, 9]: 72.62%
Y-maze % (Sc.Aβ / Vhc = 100) ([1]; IP 3.75 mg/kg once a day): 96%
Y-maze Mean, percentage of alternation ([1]; IP 3.75 mg/kg once a day): 70.90%
restoration of short-term memory to Sham level (Y-maze), in words ([1]; NX210 at 2 and 3.75 mg/kg, NX218 at 1, 2 and 3.75 mg/kg): complete restoration
effect on Aβ25-35-induced short-term memory deficits (Y-maze) at subactive dose, in words [1, 10]: do not impede
EL % (Sc.Aβ / Vhc = 100) ([2]; IP 0.1 mg/kg once a day): 449%
EL Mean, escape latency, retention session ([2]; IP 0.1 mg/kg once a day): 89.42 s
STL % (Sc.Aβ / Vhc = 100) ([2]; IP 0.1 mg/kg once a day): 42%
STL Mean, step-through latency, retention session ([2]; IP 0.1 mg/kg once a day): 118.92 s
EL % (Sc.Aβ / Vhc = 100) ([2]; IP 1 mg/kg once a day): 267%
EL Mean, escape latency, retention session ([2]; IP 1 mg/kg once a day): 53.08 s
STL % (Sc.Aβ / Vhc = 100) ([2]; IP 1 mg/kg once a day): 63%
STL Mean, step-through latency, retention session ([2]; IP 1 mg/kg once a day): 177.92 s
EL % (Sc.Aβ / Vhc = 100) [2, 8]: 110%
EL Mean, escape latency, retention session [2, 8]: 22.00 s
STL % (Sc.Aβ / Vhc = 100) [2, 8]: 93%
STL Mean, step-through latency, retention session [2, 8]: 263.33 s
EL % (Sc.Aβ / Vhc = 100) ([2]; IP 2 mg/kg once a day): 156%
EL Mean, escape latency, retention session ([2]; IP 2 mg/kg once a day): 31.17 s
STL % (Sc.Aβ / Vhc = 100) ([2]; IP 2 mg/kg once a day): 88%
STL Mean, step-through latency, retention session ([2]; IP 2 mg/kg once a day): 248.33 s
EL % (Sc.Aβ / Vhc = 100) [2, 9]: 119%
EL Mean, escape latency, retention session [2, 9]: 23.75 s
STL % (Sc.Aβ / Vhc = 100) [2, 9]: 94%
STL Mean, step-through latency, retention session [2, 9]: 264.75 s
EL % (Sc.Aβ / Vhc = 100) ([2]; IP 3.75 mg/kg once a day): 139%
EL Mean, escape latency, retention session ([2]; IP 3.75 mg/kg once a day): 27.67 s
STL % (Sc.Aβ / Vhc = 100) ([2]; IP 3.75 mg/kg once a day): 90%
STL Mean, step-through latency, retention session ([2]; IP 3.75 mg/kg once a day): 255.50 s
effect on contextual long-term memory deficits (STL and EL), in words ([2]; NX210 2 and 3.75 mg/kg, NX218 1, 2 and 3.75 mg/kg, once a day or every other day): fully rescued
effect on contextual long-term memory deficits (STL and EL) at subactive dose, in words [2, 10]: do not impede
effect on brain Aβ1-42 vs Aβ25-35 / Vhc group, in words [3, 11]: significantly decreased
Aβ1-42 %, percentage of the control group (Sc.Aβ / Vhc) [3, 12]: 107%
Aβ1-42 Mean [3, 12]: 24.25
effect on brain pTau vs Aβ25-35 / Vhc group, in words [4, 11]: significantly decreased
pTau %, percentage of the control group (Sc.Aβ / Vhc) [4, 12]: 151%
pTau Mean [4, 12]: 90.21
effect on neuronal loss in the hippocampus, in words ([5]; 2 mg/kg): significantly prevents
Histology %, percentage of control (Sc.Aβ / Vhc) ([5]; IP 2 mg/kg once a day, D15): 93%
Histology Mean ([5]; IP 2 mg/kg once a day, D15): 311.84 number of neurons per mm of tissue
conversion by oxidation in rat plasma, in words [6]: rapidly converted into NX218
Kel (clearance rate constant), AM ([7]; measured as NX218, arithmetic mean, N=3): 0.0348 I/min
Kel (clearance rate constant), GM ([7]; measured as NX218, geometric mean, N=3): 0.0347 I/min
AUClast, Max ([7]; measured as NX218, maximum): 7850 ng·min/mL
Cmax, Max ([7]; measured as NX218, maximum): 1040 ng/mL
Tmax, Max ([7]; measured as NX218, maximum): 12.00 min
AUC∞, Max [7, 13]: 7920 ng·min/mL
Kel (clearance rate constant), Max [7, 13]: 0.0372 I/min
t½, Max [7, 13]: 22.5 min
Kel (clearance rate constant), Median ([7]; measured as NX218, median, N=3): 0.0365 I/min
AUClast, Min ([7]; measured as NX218, minimum): 1470 ng·min/mL
Cmax, Min ([7]; measured as NX218, minimum): 185 ng/mL
Tmax ([7]; measured as NX218, minimum): 6.00 min
AUC∞, Min [7, 14]: 2800 ng·min/mL
Kel (clearance rate constant), Min [7, 14]: 0.0308 I/min
t½ [7, 14]: 18.6 min
